Laboratory results as given in patent US6063783A, “Analgesic use of triazolo-pyridazine derivatives” (Merck Sharp & Dohme Ltd., priority 1997, dated 2000).

Tests used:
[1] = test system: carrageenan-induced hyperalgesia; assay: rat carrageenan-induced hyperalgesia assay; assay type: in vivo; settings: male Sprague Dawley rats, oral, given 2 h after carrageenan, mechanical thresholds at 3 h, read-out: ID50, inhibition of carrageenan-induced hyperalgesia
Procedure: Carrageenan-induced hyperalgesia
Male Sprague Dawley rats (100-120 g) received an intraplantar injection of carrageenan (4.5 mg) and mechanical thresholds were determined 3 h later using a modified Ugo Basile Algesiometer. Control rats received saline (0.15 ml i.pl.). Hyperalgesia was defined as the difference in vocalisation threshold for saline- and carrageenan-injected rats. Paw pressure scores for drug-treated rats were expressed as a percentage of this response. Compound A (1, 3 or 10 mg/kg) or vehicle were administered 2 h after carrageenan.
(§1) Compound A was suspended in 0.5% methocel and administered orally. Doses refer to the free base.

chain pulling = chain pulling (sedation) in rats; assay type: in vivo, rat; settings: food-deprived P.V.G. rats; oral doses of up to 100 mg/kg; chain pulls recorded for up to 60 min
Procedure: Response sensitivity training and testing was carried out in standard operant conditioning chambers. Each chamber was equipped with a chain suspended from the centre of the ceiling and connected to a micro switch. Food pellets were delivered into a food magazine positioned at floor level in the centre of the front wall. Food-deprived P.V.G. rats (280-380 g) were trained to pull a chain for access to food pellets according to a random interval (RI) 30 s schedule. Animals received Compound A at 1, 3, 10, 30 or 100 mg/kg or vehicle and the number of chain pulls recorded for up to 60 min. Response rates for drug-treated animals are then expressed as a percentage of response rates for vehicle-treated rats.
as §1

SMILES: Cn1ncnc1COc1nn2c(-c3ccccc3)nnc2cc1N1CCCC1 [Compound A, 6-(2-methyl-2H-1,2,4-triazol-3-ylmethoxy)-3-phenyl-7-(pyrrolidin-1-yl)-1,2,4-triazolo[4,3-b]pyridazine]
- ED50 [1]: 5.3 mg/kg
- effects on chain pulling (sedation) (chain pulling): no effects
